Values joined by “and” are separate entries in the source; they are usually repeats but may differ in a detail not shown here. Equal entries are not always repeated.

The results in this text go back to article PMC9188596, “Structural basis of resistance to herbicides that target acetohydroxyacid synthase” (Nature Communications, 2022).

For experiment [1], the target named is T1, WT AtAHAS (Arabidopsis thaliana, UniProt P17597). In words: Ki of herbicides, continuous spectrophotometric AHAS assay. Type of experiment: biochemical. How it is done: (§1) Standard assays were performed using a continuous spectrophotometric method measuring the disappearance of pyruvate. The standard buffer contained 50 mM potassium phosphate, pH 7.2, 1 mM ThDP, 10 mM MgCl2, and 10 µM FAD. The concentration of pyruvate was in the range 100–160 mM, as described in the text, methods, or figure legends.
(§2) Supplementary Figure 6. Measurement of the Ki values for WT AtAHAS and the mutants.
(§3) The error bars represent the standard error of the mean of two independent replicates. [I] =
(§4) inhibitor concentration. Source data are provided with this paper.
(§5) (1 picture or pasted object on this page, not shown here)

Experiment [2] deals with T2, AtAHAS P197L mutant (Arabidopsis thaliana, UniProt P17597, P197L). In words: biochemical. How it is done: as §1, §2, §3, §4, §5
Experiment [3] has as its target T3, AtAHAS P197T mutant (Arabidopsis thaliana, UniProt P17597, P197T). In words: biochemical. How it is done: as §1, §2, §3, §4, §5
The target of experiment [4] is T4, AtAHAS S653T mutant (Arabidopsis thaliana, UniProt P17597, S653T). In words: biochemical. How it is done:
as §1, §2, §3, §4, §5

For experiment [5], the target named is T5, AtAHAS W574L mutant (Arabidopsis thaliana, UniProt P17597, W574L). Put plainly: biochemical. How it is done:
as §1, §2, §3, §4, §5

The target of experiment [6] is T1, WT AtAHAS. It counts as biochemical. How it is done:
as §1
(§6) AtAHAS was assayed in the standard assay buffer containing 160 mM pyruvate, at 30 °C. For AtAHAS activation the progress curve corresponding to the lag-phase was fitted to Eq. (8) of Lonhienne et al.[14]. For the time dependent accumulative inhibition of AtAHAS the progress curves were fitted to Equation 9 of Lonhienne et al.[12].
Supplementary Figure 8. Measurement of the rate constants of accumulative inhibition for WT AtAHAS and its mutants. The progress curves were fitted to the equation of accumulative inhibition (Equation 7 2). The rate constants of enzyme inactivation ( kiapp) and enzyme recovery (k3) were measured in triplicate. Source data are provided with this paper.

In experiment [7] the target is T2, AtAHAS P197L mutant. Type of experiment: biochemical. The following applies: NAI = no accumulative inhibition detected. How it is done: as §1, §6
(§7) Supplementary Figure 8. Measurement of the rate constants of accumulative inhibition for WT AtAHAS and its mutants. The progress curves were fitted to the equation of accumulative inhibition (Equation 7 2). The rate constants of enzyme inactivation ( kiapp) and enzyme recovery (k3) were measured in triplicate. Source data are provided with this paper. […]

Experiment [8] concerns the target T3, AtAHAS P197T mutant. It counts as biochemical. The following applies: P197T, NAI = no accumulative inhibition detected. How it is done: as §1, §6, §7
The target in experiment [9] is T4, AtAHAS S653T mutant. Type of experiment: biochemical. How it is done:
as §1, §6, §7

The target in experiment [10] is T5, AtAHAS W574L mutant. It counts as biochemical. The following applies: NAI = no accumulative inhibition detected. How it is done: as §1, §6, §7
The target in experiment [11] is T2, AtAHAS P197L mutant. In words: Inhibition of AHAS activity by ubiquinone Q0. The following applies: read-out: % inhibition of AHAS activity by 0.5 mM Q0. Type of experiment: biochemical. How it is done: (§8) Next, we investigated how the mutants responded to regulation by redox signaling molecules using ubiquinone Q0 (Q0) as an example[14].
(§9) Supplementary Figure 5. Inhibition of WT AtAHAS and the mutants by Q0. AtAHAS was incubated with 100 mM pyruvate at 30°C. After reaching full activation, the inhibition reaction was initiated by addition of 0.5 mM Q0 to the sample cell. After seven minutes incubation with Q0, 1 mM DTT was added to reduce the remaining Q0, triggering re-activation of the enzyme.
(§10) Source data are provided with this paper.
as §5

Experiment [12] has as its target T3, AtAHAS P197T mutant. Put plainly: Inhibition of AHAS activity by ubiquinone Q0. Type of experiment: biochemical. To be noted: read-out: % inhibition of AHAS activity by 0.5 mM Q0. How it is done:
as §8, §9, §10, §5

Experiment [13] deals with T4, AtAHAS S653T mutant. In words: Inhibition of AHAS activity by ubiquinone Q0. Type of experiment: biochemical. The following applies: read-out: % inhibition of AHAS activity by 0.5 mM Q0. How it is done: as §8, §9, §10, §5
Experiment [14] deals with T5, AtAHAS W574L mutant. Put plainly: Inhibition of AHAS activity by ubiquinone Q0. It counts as biochemical. To be noted: read-out: % inhibition of AHAS activity by 0.5 mM Q0. How it is done:
as §8, §9, §10, §5

The target in experiment [15] is T1, WT AtAHAS. In words: Inhibition of AHAS activity by ubiquinone Q0. The following applies: read-out: % inhibition of AHAS activity by 0.5 mM Q0. Type of experiment: biochemical. How it is done: as §8, §9, §10, §5
[16] abbreviates: Ki, WT AtAHAS, ± standard error of the mean.
Setting [17] is: Ki (Supplementary Figure 6), P197L, fit of % activity remaining vs [I], two independent replicates.
The mark [18] stands for this setting: Ki, P197L mutant, ± standard error of the mean.
Setting [19] is: Ki (Supplementary Figure 6), P197T, fit of % activity remaining vs [I], two independent replicates.
The mark [20] stands for this setting: Ki, P197T mutant, ± standard error of the mean.
[21] abbreviates: Ki, S653T mutant, ± standard error of the mean.
The mark [22] stands for this setting: Ki, W574L mutant, ± standard error of the mean.
[23] abbreviates: individual replicate of triplicate.
[24] abbreviates: S653T, individual replicate of triplicate.

What is called Ki is the equilibrium dissociation constant of an inhibitor or competing ligand from its target. Lower therefore signals a stronger hold on the target. Consider `COc1cc(OC)nc(NC(=O)NS(=O)(=O)N(C)S(C)(=O)=O)n1` [AS, amidosulfuron], for which the Ki on WT AtAHAS [1] (setting [16]) stood at 4200 ± 600 nM; at AtAHAS P197L mutant [2] (setting [17]), 93500 ± 17100 nM; at AtAHAS P197L mutant [2] (setting [18]) it was 93500 ± 17100 nM; on AtAHAS P197T mutant [3] (setting [19]), 61400 ± 8920 nM; at AtAHAS P197T mutant [3] (setting [20]), 61400 ± 8900 nM; on AtAHAS S653T mutant [4] (setting [21]), 492 ± 25 nM. The Ki at AtAHAS W574L mutant [5] (Ki (Supplementary Figure 6), W574L, fit of % activity remaining vs [I], two independent replicates) is 871000 ± 66500 nM; on AtAHAS W574L mutant [5] (setting [22]), 870000 ± 60000 nM. The “kiapp/k3 (efficiency of accumulative inhibition)” value on WT AtAHAS [6] is recorded as 20; on AtAHAS P197L mutant [7], “NAI”; on AtAHAS P197T mutant [8] it was “NAI”; on AtAHAS S653T mutant [9] (S653T), 95; at AtAHAS W574L mutant [10] it was “NAI”. Moreover, the “k3 (rate of recovery)” value at WT AtAHAS [6] (160 mM pyruvate, 30 °C, ± SEM) was 0.02 ± 0.001 min⁻¹; at AtAHAS P197L mutant [7] (160 mM pyruvate, 30 °C) it was “NAI”; at AtAHAS P197T mutant [8] (160 mM pyruvate, 30 °C), “NAI”; on AtAHAS S653T mutant [9] (S653T, 160 mM pyruvate, 30 °C, ± SEM), 0.02 ± 0.002 min⁻¹; on AtAHAS W574L mutant [10] (160 mM pyruvate, 30 °C), “NAI”. In addition, the “kiapp (apparent rate of enzyme inactivation)” value was 0.39 ± 0.06 min⁻¹ at WT AtAHAS [6] (160 mM pyruvate, 30 °C, ± SEM); “NAI” on AtAHAS P197L mutant [7] (160 mM pyruvate, 30 °C); “NAI” at AtAHAS P197T mutant [8] (160 mM pyruvate, 30 °C); “NAI” at AtAHAS W574L mutant [10] (160 mM pyruvate, 30 °C). Further, the “k3, single progress curve (Supplementary Figure 8)” value at WT AtAHAS [6] (setting [23]) is 0.021 min-1 and 0.02 min-1 (2×); at AtAHAS S653T mutant [9] (setting [24]), 0.02 min⁻¹ and 0.023 min⁻¹ and 0.021 min⁻¹. Moreover, the “kiapp, single progress curve (Supplementary Figure 8)” value was 0.34 min⁻¹ and 0.46 min⁻¹ and 0.36 min⁻¹ at WT AtAHAS [6] (setting [23]); 1.93 min⁻¹ and 1.94 min⁻¹ and 2.21 min⁻¹ at AtAHAS S653T mutant [9] (setting [24]). At AtAHAS S653T mutant [9] (S653T vs WT), the “efficiency of accumulative inhibition (kiapp/k3) compared to WT (in words)” value is reported as “increased”.
For `COc1cc(OC)n2nc(S(=O)(=O)Nc3c(Cl)ccc(C)c3Cl)nc2n1` [MT, metosulam], the Ki stood at 28.7 ± 11.2 nM at WT AtAHAS [1] (Ki (Supplementary Figure 6), Wild type AtAHAS, fit of % activity remaining vs [I], two independent replicates); 29 ± 11.2 nM on WT AtAHAS [1] (setting [16]); 1320 ± 131 nM on AtAHAS P197L mutant [2] (setting [17]); 1320 ± 130 nM at AtAHAS P197L mutant [2] (setting [18]); 1130 ± 130 nM on AtAHAS P197T mutant [3] (setting [19]); 1130 ± 130 nM at AtAHAS P197T mutant [3] (setting [20]). Also, the Ki was found to be 66 ± 5.64 nM on AtAHAS S653T mutant [4] (Ki (Supplementary Figure 6), S653T, fit of % activity remaining vs [I], two independent replicates); 66 ± 5.6 nM on AtAHAS S653T mutant [4] (setting [21]); 39300 ± 3900 nM on AtAHAS W574L mutant [5] (setting [22]).
As a reminder, the inhibition is the percentage by which the read-out fell short of the control. As to `COC1=C(OC)C(=O)C(C)=CC1=O` [Q0, ubiquinone Q0], the inhibition at 500 µM at AtAHAS P197L mutant [11] was 89%; on AtAHAS P197T mutant [12], 91%; on AtAHAS S653T mutant [13], 85%; on AtAHAS W574L mutant [14], 97%; at WT AtAHAS [15], 82%.
